One data set relates to TNF-a and IL-6. Briefly: BCG/CpG-ODN-induced systemic production of TNF-a and IL-6 in vivo, serum ELISA (Example 8). Details: species or system Mice C57Bl/6. As to conditions: one hour after s.c. injection into the flank; ELISA. The procedure: Mice were injected subcutaneously into the flank with a total volume of 100 μl, containing the above mentioned compounds. One hour after injection blood was taken from the tail-vein and serum was prepared. The amount of the pro-inflammatory cytokines TNF-a and IL-6 in the sera was determined by cytokine-specific ELISAs according to the manufacturer's instructions (R&D Systems, Inc., Minneapolis, Minn.).
In general terms: ELISA stands for enzyme-linked immunosorbent assay.

Data set [1] relates to CD11c+ sorted BM-DC. Kind of data set: CpG-ODN-induced production of TNF-α and IL-6 by murine BM-DC in vitro, KLK (Example 7). The format is cell-based, C57B1/6 mice. As to conditions: substance alone (KLK 16, 8 μg/ml; CpG-ODN 1668 0.5 nmol/ml); 24 h; supernatant ELISA. The procedure: (§1) Murine dendritic cells (DC) were generated from bone-marrow precursor cells of C57Bl/6 mice as previously described (Inaba 1992). Briefly, bone marrow cells were obtained by flushing the femurs and tibias with medium. Cells were depleted of lymphocytes, granulocytes and MHC class II^+cells by Ab-complement-mediated lysis. Dead cells were removed by Ficoll gradient (Ficoll Separating Solution, density […]; Biochrom KG, Germany). The remaining cells (1×10^6/ml) were cultured in 24-well culture plates in high glucose DMEM medium (PAA Laboratories GmbH, Linz, Austria; E 15-009) supplemented with 10% heat-inactivated FCS, 10. mM sodium pyruvate, 2 mM L-glutamine, […] gentamicin, 0.5 mM 2-mercaptoethanol (all supplements from PAA Laboratories GmbH, Linz, Austria), 20 ng/ml GM-CSF and 250 U/ml IL-4. On day 3 of culture, cells were fed with fresh medium. On day 6 of culture, non-adherent cells and loosely adherent aggregates were harvested, washed and re-plated in 6-well culture plates (2×10^6/5 ml). After additional 1 day of culture, non-adherent cells were collected for analyses. […] For in vitro-stimulations, day 7-cultured bone marrow cells were further enriched for CD11c^+ cells (=DC) using magnetic beads (Miltenyi, Bergisch-Gladbach, Germany). The purity of BM-DC was more than 95% as determined by flow cytometry analyses. […] Supernatants were harvested after 24 h and analysed for the production of TNF-α and IL-6 using specific ELISAs.
Murine dendritic cells (DC) were generated from bone-marrow precursor cells of C57B1/6 mice as described in example 5.

Data set [2] deals with CD11c+ sorted BM-DC. Kind of data set: CpG-ODN-induced production of TNF-α and IL-6 by murine BM-DC in vitro, poly-L-arginine (Example 5). The format is cell-based, C57Bl/6 mice. Particulars: substance alone (poly-L-arginine 10 μg/ml; CpG-ODN 1668 1 nmol/ml), 24 h, supernatant ELISA. How it is done:
as §1

Data set [3] can be described thus: Depot formation at the injection site at day 4, labelled TRP-2 peptide/pR60/CpG-ODN (Example 3). The class given is in vivo, Mice C57Bl/6. Particulars: injected either alone or in combination with CpG-ODN-Cy5. The procedure: On day 0 mice were injected subcutaneously into the right flank with a total volume of […] containing the above mentioned compounds. Animals were sacrificed at day 4 after injection and photos were taken from the injection sites (FIG. 3).

A short description of data set [4]: Depot formation at the injection site, fluorescence-labelled compounds, photos (Example 2a). Particulars: mouse, in vivo, sc. The arrangement: species or system Mice C57Bl/6. How it is done: On day 0 mice were injected subcutaneously into the right flank with a total volume of 100 μl containing the above mentioned compounds. Animals were sacrificed at the indicated time points after injection and photos were taken from the injection sites (FIG. 2a).

Data set [5] in a line: FACS analyses of lymphoid and non-lymphoid tissues for CpG-ODN-Cy5 (Example 2b). As to conditions: mouse, in vivo, sc. The arrangement: species or system Mice C57B1/6. The procedure: Mice were injected subcutaneously into the right flank with a total volume of 100 μl containing the above mentioned compounds. One day after injection, mice were sacrificed and FACS-analyses were performed from secondary lymphoid organs (draining lymph node, spleen) as well as non-lymphoid tissues (lung, liver, kidney, heart) (FIG. 2b).

This note sets out measurements from patent US20040081655A1, “Methods and compositions comprising polycationic compounds” (priority 2001, published 2004).

No end group written: not given here.

Turning to “tcc atg acg ttc ctg atg ct (TCCATGACGTTCCTGATGCT; chemistry not given here) [CpG-ODN 1668, phosphothioate-modified oligodinucleotides containing a CpG-motif, reference compound]”, in the data set with TNF-a and IL-6, the “production of IL-6 in serum after injection” value was “induces the systemic production” and the “production of TNF-a in serum after injection” value is on record as “induces the systemic production”. Further, in the data set on CD11c+ sorted BM-DC [1], the “production of IL-6 by murine BM-DC” value was “induces the production” and the “production of TNF-a by murine BM-DC” value is recorded as “induces the production”. In the data set with CD11c+ sorted BM-DC [2] (listed as CPG-ODN 1668), the “production of IL-6 by murine BM-DC” value was “induces the production” and the “production of TNF-α by murine BM-DC” value is given as “induces the production”. In the data set on CD11c+ sorted BM-DC [2] (listed as CpG-ODN), the “production of IL-6 by murine BM-DC” value is “significant amounts of both cytokines are produced” and the “production of TNF-α by murine BM-DC” value is given as “significant amounts of both cytokines are produced”.

For “TRP-2181-188-peptide-FITC: FITC-labeled TRP-2-Peptide (VYDFFVWL), MHC class I (H-2 Kb) restricted epitope of mouse tyrosinase related protein-2 (also: FITC label, site not given here)”, the “presence of the labelled peptide at the injection site” value in data set [3] was “not detectable at the injection site at day 4”.

Regarding “CpG-ODN-Cy5: phosphothioate-modified, Cy5-labeled oligodinucleotides containing a CpG motif: tcc atg acg ttc ctg atg ct (DNA TCCATGACGTTCCTGATGCT; DNA, all phosphorothioate, methylation of C not given here; Cy5 label)”, the “distribution of CpG-ODN-Cy5 after injection” value in data set [4] is “distribution of CpG-ODN-Cy5 all over the skin”. In addition, in data set [5], the “CpG-ODN-Cy5 in secondary lymphoid organs and non-lymphoid tissues (FACS)” value was “detectable in secondary lymphoid organs (draining lymph node, spleen) and non-lymphoid tissues (lung, liver, kidney, heart)”.
